ChEMBL document CHEMBL5465560, “Selectivity Literature for EUbOPEN Chemogenomic Library” (2024)

What was measured:
[1] = test system: Leucine-rich repeat serine/threonine-protein kinase 2 (Homo sapiens), Q5S007 [G2019S]; experiment: (§1) Selectivity interaction (KinomeScan (DiscoverX)) EUB0000666a LRRK2; conditions: at 10 µM
[2] = target: Leucine-rich repeat serine/threonine-protein kinase 2 (Homo sapiens, UniProt Q5S007); experiment: as §1; conditions: at 10 µM
[3] = target: T1, Serine/threonine-protein kinase RIO1 (Homo sapiens) (UniProt Q9BRS2); experiment: Selectivity interaction (KINOMEscan (DiscoverX)) EUB0001868a RIOK1; conditions: at 1 µM
T1 sequence (whole entry): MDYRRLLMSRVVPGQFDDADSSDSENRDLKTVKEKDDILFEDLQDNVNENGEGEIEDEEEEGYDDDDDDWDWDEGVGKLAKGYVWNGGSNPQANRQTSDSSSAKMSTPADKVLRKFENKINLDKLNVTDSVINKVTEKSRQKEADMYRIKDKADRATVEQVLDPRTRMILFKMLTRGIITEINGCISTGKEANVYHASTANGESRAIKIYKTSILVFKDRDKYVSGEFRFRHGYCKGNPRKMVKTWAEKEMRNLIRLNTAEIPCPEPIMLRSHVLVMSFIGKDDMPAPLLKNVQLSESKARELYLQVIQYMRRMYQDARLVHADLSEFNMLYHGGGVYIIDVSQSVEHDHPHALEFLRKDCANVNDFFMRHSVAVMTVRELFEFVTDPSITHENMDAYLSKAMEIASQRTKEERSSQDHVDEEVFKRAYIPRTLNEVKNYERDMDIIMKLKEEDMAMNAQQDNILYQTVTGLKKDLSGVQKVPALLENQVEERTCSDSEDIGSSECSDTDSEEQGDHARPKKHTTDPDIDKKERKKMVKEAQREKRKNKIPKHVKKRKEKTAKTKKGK

[4] = target: T2, Serine/threonine-protein kinase DCLK2 (Homo sapiens) (UniProt Q8N568); experiment: Selectivity interaction (KinomeScan (DiscoverX)) EUB0000607a DCLK2; conditions: at 10 µM
T2 sequence (whole entry): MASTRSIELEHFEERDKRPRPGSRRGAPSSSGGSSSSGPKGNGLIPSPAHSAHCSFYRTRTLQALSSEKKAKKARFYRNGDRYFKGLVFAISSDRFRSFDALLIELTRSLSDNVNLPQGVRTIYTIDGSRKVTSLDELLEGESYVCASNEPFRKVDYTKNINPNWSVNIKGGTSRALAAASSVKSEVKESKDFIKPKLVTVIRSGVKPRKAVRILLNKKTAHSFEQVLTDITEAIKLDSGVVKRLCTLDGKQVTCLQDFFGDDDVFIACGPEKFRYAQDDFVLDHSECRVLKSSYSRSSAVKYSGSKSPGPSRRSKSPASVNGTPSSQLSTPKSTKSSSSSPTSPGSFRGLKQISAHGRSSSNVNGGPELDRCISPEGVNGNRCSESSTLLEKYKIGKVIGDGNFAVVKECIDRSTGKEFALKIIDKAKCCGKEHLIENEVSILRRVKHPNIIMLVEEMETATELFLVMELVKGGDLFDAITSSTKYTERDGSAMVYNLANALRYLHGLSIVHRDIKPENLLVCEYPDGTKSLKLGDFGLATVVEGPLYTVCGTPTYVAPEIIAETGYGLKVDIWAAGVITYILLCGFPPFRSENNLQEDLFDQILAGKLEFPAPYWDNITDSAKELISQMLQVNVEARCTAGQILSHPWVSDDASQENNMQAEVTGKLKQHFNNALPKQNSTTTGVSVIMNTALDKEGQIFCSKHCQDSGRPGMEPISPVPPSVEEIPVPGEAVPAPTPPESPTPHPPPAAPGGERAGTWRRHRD

[5] = target: Casein kinase I isoform gamma-1 (Homo sapiens) (UniProt Q9HCP0); experiment: Selectivity interaction (KinomeScan (DiscoverX)) EUB0000607a CSNK1G1; conditions: at 10 µM
[6] = target: Mitogen-activated protein kinase 8 (Homo sapiens, UniProt P45983); experiment: Selectivity interaction (Kinase panel (Invitrogen)) EUB0000639a MAPK8; conditions: at 200 nM
[7] = target: SRSF protein kinase 2 (Homo sapiens) (UniProt P78362); experiment: Selectivity interaction (KinomeScan (DiscoverX)) EUB0000695a SRPK2; conditions: at 100 nM
[8] = target: Mitogen-activated protein kinase 4 (Homo sapiens) (UniProt P31152); experiment: Selectivity interaction (KinomeScan (DiscoverX)) EUB0000595a MAPK4; conditions: at 10 µM
[9] = target: T3, MAP/microtubule affinity-regulating kinase 4 (Homo sapiens) (UniProt Q96L34); experiment: Selectivity interaction (KinomeScan (DiscoverX)) EUB0000229b MARK4; conditions: at 10 µM
T3 sequence (whole entry): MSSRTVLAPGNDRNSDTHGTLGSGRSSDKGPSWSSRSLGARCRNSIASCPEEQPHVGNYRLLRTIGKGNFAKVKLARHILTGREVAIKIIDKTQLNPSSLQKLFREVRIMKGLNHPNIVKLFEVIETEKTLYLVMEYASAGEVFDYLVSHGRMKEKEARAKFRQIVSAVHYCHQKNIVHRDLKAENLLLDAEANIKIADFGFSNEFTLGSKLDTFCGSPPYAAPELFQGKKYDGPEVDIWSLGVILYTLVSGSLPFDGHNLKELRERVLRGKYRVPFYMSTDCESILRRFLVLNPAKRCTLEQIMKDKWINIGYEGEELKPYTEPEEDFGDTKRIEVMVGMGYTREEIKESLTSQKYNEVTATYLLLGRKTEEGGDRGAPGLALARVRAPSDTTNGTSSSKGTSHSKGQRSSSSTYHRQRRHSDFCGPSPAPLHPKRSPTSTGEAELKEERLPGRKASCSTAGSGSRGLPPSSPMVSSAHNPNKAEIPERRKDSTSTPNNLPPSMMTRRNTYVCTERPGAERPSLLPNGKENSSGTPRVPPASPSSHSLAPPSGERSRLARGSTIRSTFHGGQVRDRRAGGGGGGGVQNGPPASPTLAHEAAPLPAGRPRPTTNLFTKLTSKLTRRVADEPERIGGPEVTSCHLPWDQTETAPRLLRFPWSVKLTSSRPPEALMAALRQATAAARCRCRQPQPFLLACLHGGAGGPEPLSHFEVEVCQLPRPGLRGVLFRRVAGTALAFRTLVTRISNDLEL

SRSF protein kinase 2 (Homo sapiens), sequence (P78362 whole entry, looked up): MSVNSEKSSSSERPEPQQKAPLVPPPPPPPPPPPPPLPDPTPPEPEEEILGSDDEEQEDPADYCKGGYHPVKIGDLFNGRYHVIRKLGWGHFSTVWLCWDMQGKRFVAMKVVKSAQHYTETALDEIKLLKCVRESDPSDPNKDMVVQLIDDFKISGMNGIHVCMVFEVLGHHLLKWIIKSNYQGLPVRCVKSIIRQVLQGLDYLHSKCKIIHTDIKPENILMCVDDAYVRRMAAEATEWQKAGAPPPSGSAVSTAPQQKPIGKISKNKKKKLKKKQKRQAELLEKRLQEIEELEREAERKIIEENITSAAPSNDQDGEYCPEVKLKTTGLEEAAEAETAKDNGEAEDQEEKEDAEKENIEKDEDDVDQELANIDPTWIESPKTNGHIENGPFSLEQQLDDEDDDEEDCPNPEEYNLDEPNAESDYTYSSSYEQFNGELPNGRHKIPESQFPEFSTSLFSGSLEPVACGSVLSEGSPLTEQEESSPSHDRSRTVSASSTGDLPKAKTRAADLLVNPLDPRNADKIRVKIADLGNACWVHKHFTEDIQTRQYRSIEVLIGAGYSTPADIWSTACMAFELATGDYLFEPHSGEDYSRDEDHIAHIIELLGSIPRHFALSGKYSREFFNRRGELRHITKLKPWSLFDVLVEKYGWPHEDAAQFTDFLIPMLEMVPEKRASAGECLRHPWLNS
Mitogen-activated protein kinase 4 (Homo sapiens), sequence (P31152 whole entry): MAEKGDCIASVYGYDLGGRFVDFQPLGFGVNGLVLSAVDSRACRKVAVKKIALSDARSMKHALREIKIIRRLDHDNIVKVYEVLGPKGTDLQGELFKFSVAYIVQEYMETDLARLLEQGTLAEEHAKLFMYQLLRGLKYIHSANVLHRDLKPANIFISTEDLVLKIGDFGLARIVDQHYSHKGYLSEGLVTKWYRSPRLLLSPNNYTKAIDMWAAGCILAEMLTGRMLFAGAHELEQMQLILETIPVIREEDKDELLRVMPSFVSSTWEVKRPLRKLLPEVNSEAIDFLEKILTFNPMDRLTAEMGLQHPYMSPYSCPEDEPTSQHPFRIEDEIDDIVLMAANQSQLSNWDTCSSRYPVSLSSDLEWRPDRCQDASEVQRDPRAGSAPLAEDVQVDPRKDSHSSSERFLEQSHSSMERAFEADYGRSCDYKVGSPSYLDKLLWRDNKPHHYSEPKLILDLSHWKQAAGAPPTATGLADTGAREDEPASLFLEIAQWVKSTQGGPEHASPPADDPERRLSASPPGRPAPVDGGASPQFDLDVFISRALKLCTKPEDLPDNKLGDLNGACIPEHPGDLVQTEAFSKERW
Mitogen-activated protein kinase 8, sequence (P45983 whole entry): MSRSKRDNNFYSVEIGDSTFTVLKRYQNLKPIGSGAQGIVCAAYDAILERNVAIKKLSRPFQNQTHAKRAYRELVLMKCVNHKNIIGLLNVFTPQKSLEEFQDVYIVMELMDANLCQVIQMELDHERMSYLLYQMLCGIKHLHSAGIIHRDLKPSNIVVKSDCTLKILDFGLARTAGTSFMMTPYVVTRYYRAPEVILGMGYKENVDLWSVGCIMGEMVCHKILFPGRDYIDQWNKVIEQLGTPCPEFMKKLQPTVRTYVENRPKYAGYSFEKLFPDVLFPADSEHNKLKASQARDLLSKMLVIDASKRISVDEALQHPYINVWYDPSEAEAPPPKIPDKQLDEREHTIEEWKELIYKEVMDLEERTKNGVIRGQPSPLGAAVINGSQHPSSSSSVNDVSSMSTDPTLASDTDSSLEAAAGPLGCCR
Leucine-rich repeat serine/threonine-protein kinase 2 (Homo sapiens), Q5S007 [G2019S], sequence (Q5S007 whole entry G2019S): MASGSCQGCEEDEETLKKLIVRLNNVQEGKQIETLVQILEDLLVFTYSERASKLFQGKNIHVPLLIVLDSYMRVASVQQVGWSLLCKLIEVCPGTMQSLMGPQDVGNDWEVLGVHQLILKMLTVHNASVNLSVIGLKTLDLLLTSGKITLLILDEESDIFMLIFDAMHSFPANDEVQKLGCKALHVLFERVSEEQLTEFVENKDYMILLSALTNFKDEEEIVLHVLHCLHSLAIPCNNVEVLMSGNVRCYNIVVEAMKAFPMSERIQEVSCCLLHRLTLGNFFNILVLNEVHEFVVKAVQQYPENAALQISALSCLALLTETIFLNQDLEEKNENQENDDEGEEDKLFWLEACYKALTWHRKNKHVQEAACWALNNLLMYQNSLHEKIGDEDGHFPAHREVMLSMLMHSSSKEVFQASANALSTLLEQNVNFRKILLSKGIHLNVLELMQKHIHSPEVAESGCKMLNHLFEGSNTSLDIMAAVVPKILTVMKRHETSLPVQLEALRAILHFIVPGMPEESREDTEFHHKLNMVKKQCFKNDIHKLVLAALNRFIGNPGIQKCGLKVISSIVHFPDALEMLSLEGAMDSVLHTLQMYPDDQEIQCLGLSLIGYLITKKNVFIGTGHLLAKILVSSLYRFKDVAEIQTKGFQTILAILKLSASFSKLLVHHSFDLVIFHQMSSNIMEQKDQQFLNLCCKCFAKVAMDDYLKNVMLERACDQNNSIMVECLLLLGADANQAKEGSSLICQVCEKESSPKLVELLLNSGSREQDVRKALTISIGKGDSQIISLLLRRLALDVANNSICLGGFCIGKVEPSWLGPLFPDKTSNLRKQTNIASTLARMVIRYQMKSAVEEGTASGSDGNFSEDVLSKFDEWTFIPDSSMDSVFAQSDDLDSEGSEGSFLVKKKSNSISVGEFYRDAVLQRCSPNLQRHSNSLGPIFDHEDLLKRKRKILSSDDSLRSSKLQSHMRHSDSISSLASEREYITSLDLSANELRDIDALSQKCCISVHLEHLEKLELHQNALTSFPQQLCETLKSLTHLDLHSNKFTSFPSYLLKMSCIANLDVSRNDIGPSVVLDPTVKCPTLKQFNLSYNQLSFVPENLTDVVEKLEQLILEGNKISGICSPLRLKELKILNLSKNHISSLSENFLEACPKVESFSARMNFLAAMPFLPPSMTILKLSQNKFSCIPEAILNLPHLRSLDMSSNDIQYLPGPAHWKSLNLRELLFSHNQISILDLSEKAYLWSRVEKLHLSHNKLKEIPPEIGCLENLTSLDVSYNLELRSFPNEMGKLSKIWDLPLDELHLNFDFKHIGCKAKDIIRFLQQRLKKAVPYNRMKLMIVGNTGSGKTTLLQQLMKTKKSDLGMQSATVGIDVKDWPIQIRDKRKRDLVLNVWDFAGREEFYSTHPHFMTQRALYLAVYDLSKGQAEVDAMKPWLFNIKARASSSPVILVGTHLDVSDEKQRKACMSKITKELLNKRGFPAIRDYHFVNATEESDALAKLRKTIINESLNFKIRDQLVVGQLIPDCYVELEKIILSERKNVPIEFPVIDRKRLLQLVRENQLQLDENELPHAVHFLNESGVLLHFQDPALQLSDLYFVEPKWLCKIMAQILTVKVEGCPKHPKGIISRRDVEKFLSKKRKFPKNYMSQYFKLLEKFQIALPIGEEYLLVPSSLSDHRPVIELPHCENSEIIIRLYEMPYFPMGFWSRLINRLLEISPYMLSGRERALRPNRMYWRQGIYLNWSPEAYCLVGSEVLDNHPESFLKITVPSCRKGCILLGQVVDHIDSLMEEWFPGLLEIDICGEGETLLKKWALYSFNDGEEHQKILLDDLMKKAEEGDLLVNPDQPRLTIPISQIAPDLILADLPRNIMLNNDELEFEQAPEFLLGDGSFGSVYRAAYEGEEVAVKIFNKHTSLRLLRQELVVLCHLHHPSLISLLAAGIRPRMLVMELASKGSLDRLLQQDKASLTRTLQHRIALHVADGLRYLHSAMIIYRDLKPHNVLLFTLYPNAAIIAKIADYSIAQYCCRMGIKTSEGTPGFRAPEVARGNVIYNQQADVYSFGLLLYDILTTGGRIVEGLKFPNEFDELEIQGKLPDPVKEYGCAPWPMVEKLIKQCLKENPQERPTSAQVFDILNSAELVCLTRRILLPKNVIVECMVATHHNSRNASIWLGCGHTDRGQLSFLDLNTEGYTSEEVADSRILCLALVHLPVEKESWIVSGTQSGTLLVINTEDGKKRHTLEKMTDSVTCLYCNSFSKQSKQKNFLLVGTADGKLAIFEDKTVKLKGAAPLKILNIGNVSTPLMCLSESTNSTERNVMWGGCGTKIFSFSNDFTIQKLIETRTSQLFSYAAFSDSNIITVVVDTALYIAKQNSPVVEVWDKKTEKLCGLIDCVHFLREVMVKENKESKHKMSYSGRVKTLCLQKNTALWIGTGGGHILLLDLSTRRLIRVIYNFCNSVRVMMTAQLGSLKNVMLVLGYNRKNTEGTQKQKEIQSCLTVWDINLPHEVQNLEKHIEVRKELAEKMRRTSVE
Leucine-rich repeat serine/threonine-protein kinase 2, sequence (Q5S007 whole entry): as the sequence (Q5S007 whole entry G2019S) above, with S2019G counted along it
Casein kinase I isoform gamma-1 (Homo sapiens), sequence (Q9HCP0 whole entry, looked up, canonical isoform): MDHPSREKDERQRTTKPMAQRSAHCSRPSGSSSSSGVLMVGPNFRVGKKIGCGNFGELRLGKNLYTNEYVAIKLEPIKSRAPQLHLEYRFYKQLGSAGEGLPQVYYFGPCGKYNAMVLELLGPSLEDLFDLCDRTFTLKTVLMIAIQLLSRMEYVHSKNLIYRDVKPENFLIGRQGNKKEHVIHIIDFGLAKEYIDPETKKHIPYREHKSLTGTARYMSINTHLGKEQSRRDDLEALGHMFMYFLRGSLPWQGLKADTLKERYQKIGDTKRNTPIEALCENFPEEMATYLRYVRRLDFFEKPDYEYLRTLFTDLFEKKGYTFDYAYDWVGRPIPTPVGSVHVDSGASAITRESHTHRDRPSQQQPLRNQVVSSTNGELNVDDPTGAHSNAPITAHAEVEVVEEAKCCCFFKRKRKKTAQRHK

In the case of O=C(NOC[C@H](O)CO)c1ccc(F)c(F)c1Nc1ccc(I)cc1F, the % of control [1] is reported as 100% and the % of control [2] is reported as 86%.

Cc1cc(-c2ccnc(Nc3cnn(C)c3)n2)ccc1CNC(=O)N1CC(OC(C)C)C1 was tested, and the % of control [3] was 17%.

Compound CNC(=O)Nc1ccc(-c2nc(N3CC4CCC(C3)O4)c3cnn(C4CCC5(CC4)OCCO5)c3n2)cc1 has a % of control [4] of 97% and a % of control [5] of 54%.

For CC[C@@H]1[C@H](F)C(=O)N[C@@H]1COc1nccc2cc(C(N)=O)c(OC)cc12 [ZIMLOVISERTIB], the % of inhibition [6] was 6.17%.

Work on Cc1cc(F)c(C(=O)Nc2cccc(-c3nncn3C(C)C)n2)cc1-n1cnc(C2CC2)c1 yielded a % of control [7] of 100%.

With COCC(=O)NC/C=C/c1ccc2ncnc(Nc3ccc(Oc4ccc(C)nc4)c(C)c3)c2c1 [CP-724714] the % of control [8] was 100%.

Work on COc1cc(N(C)c2ccnc3ccc(C(F)(F)F)cc23)cc(OC)c1OC yielded a % binding [9] of 87%.
